Source: PMC12446476 (Nature Communications, 2025)
≈ marks a conversion by molar mass, not a printed value. Like-named read-outs stand apart in the source and are kept apart here.

Tested on: N. gonorrhoeae
Assay: MIC determination, Etest
Format: cell-based, Neisseria gonorrhoeae
Settings: for MIC: Neisseria gonorrhoeae, comparator antibiotics, read-out: Minimum inhibitory concentration
Source text: The 2024 WHO N. gonorrhoeae reference strains were used for quality control. Only whole MIC doubling dilutions are reported. Clinical breakpoints or the epidemiological cutoff (ECOFF, to indicate azithromycin resistance) from EUCAST (v14.0, https://www.eucast.org/clinical_breakpoints) were used to classify isolates as antimicrobial susceptible or resistant. […] Two times the standard inoculum defined by CLSI was used to establish consistent growth in untreated control samples for some strains. In vitro time-kill assays were performed according to CLSI guidelines[65] using Columbia Broth (BD Difco) supplemented with 1% IsoVitaleX Enrichment (BD). Viable bacterial counts were generated by plating 10-fold serially diluted samples on GC agar plates containing 1% IsoVitaleX Enrichment (BD).

`CN[C@@H]1[C@H](O)[C@H](NC)[C@H]2O[C@@]3(O)C(=O)C[C@@H](C)O[C@H]3O[C@@H]2[C@H]1O` [Spectinomycin] was tested, and the MIC (clinical N. gonorrhoeae isolate 50, Sweden 2023) was 16 µg/mL (≈ 48.1 µM), the MIC (clinical N. gonorrhoeae isolate 51, Sweden 2023) was 8 µg/mL (≈ 24.1 µM) and the MIC (clinical N. gonorrhoeae isolate 52, Sweden 2023) was 16 µg/mL (≈ 48.1 µM). The MIC (clinical N. gonorrhoeae isolate 53, Sweden 2023) was 8 µg/mL (≈ 24.1 µM), the MIC (clinical N. gonorrhoeae isolate 54, Sweden 2023) was 16 µg/mL (≈ 48.1 µM) and the MIC (clinical N. gonorrhoeae isolate 55, Sweden 2023) was 16 µg/mL (≈ 48.1 µM). It also gave an MIC (clinical N. gonorrhoeae isolate 56, Sweden 2023) of 8 µg/mL (≈ 24.1 µM), an MIC (clinical N. gonorrhoeae isolate 57, Sweden 2023) of 8 µg/mL (≈ 24.1 µM) and an MIC (clinical N. gonorrhoeae isolate 58, Sweden 2023) of 8 µg/mL (≈ 24.1 µM). For the same molecule, the MIC (clinical N. gonorrhoeae isolate 59, Sweden 2023) was 8 µg/mL (≈ 24.1 µM), the MIC (clinical N. gonorrhoeae isolate 60, Sweden 2023) was 16 µg/mL (≈ 48.1 µM) and the MIC (clinical N. gonorrhoeae isolate 61, Sweden 2023) was 8 µg/mL (≈ 24.1 µM). The MIC (clinical N. gonorrhoeae isolate 62, Sweden 2023) was 8 µg/mL (≈ 24.1 µM), the MIC (clinical N. gonorrhoeae isolate 63, Sweden 2023) was 16 µg/mL (≈ 48.1 µM) and the MIC (clinical N. gonorrhoeae isolate 64, Sweden 2023) was 16 µg/mL (≈ 48.1 µM). It also gave an MIC (clinical N. gonorrhoeae isolate 65, Sweden 2023) of 16 µg/mL (≈ 48.1 µM), an MIC (clinical N. gonorrhoeae isolate 66, Sweden 2023) of 16 µg/mL (≈ 48.1 µM) and an MIC (clinical N. gonorrhoeae isolate 67, Sweden 2023) of 16 µg/mL (≈ 48.1 µM). The MIC (clinical N. gonorrhoeae isolate 68, Sweden 2023) was 16 µg/mL (≈ 48.1 µM), the MIC (clinical N. gonorrhoeae isolate 69, Sweden 2023) was 16 µg/mL (≈ 48.1 µM) and the MIC (clinical N. gonorrhoeae isolate 70, Sweden 2023) was 8 µg/mL (≈ 24.1 µM). It also gave an MIC (clinical N. gonorrhoeae isolate 71, Sweden 2023) of 16 µg/mL (≈ 48.1 µM), an MIC (clinical N. gonorrhoeae isolate 72, Sweden 2023) of 8 µg/mL (≈ 24.1 µM) and an MIC (clinical N. gonorrhoeae isolate 73, Sweden 2023) of 16 µg/mL (≈ 48.1 µM). For the same molecule, the MIC (clinical N. gonorrhoeae isolate 74, Sweden 2023) was 16 µg/mL (≈ 48.1 µM), the MIC (clinical N. gonorrhoeae isolate 75, Sweden 2023) was 8 µg/mL (≈ 24.1 µM) and the MIC (clinical N. gonorrhoeae isolate 76, Sweden 2023) was 8 µg/mL (≈ 24.1 µM). The MIC (clinical N. gonorrhoeae isolate 77, Sweden 2023) was 16 µg/mL (≈ 48.1 µM), the MIC (clinical N. gonorrhoeae isolate 78, Sweden 2023) was 16 µg/mL (≈ 48.1 µM) and the MIC (clinical N. gonorrhoeae isolate 79, Sweden 2023) was 8 µg/mL (≈ 24.1 µM). For the same molecule, the MIC (clinical N. gonorrhoeae isolate 80, Sweden 2023) was 16 µg/mL (≈ 48.1 µM), the MIC (clinical N. gonorrhoeae isolate 81, Sweden 2023) was 16 µg/mL (≈ 48.1 µM) and the MIC (clinical N. gonorrhoeae isolate 82, Sweden 2023) was 16 µg/mL (≈ 48.1 µM). The MIC (clinical N. gonorrhoeae isolate 83, Sweden 2023) was 8 µg/mL (≈ 24.1 µM), the MIC (clinical N. gonorrhoeae isolate 84, Sweden 2023) was 16 µg/mL (≈ 48.1 µM) and the MIC (clinical N. gonorrhoeae isolate 85, Sweden 2023) was 8 µg/mL (≈ 24.1 µM). The MIC (clinical N. gonorrhoeae isolate 86, Sweden 2023) was 8 µg/mL (≈ 24.1 µM), the MIC (clinical N. gonorrhoeae isolate 87, Sweden 2023) was 8 µg/mL (≈ 24.1 µM) and the MIC (clinical N. gonorrhoeae isolate 88, Sweden 2023) was 16 µg/mL (≈ 48.1 µM). For the same molecule, the MIC (clinical N. gonorrhoeae isolate 89, Sweden 2023) was 16 µg/mL (≈ 48.1 µM), the MIC (clinical N. gonorrhoeae isolate 90, Sweden 2023) was 16 µg/mL (≈ 48.1 µM) and the MIC (clinical N. gonorrhoeae isolate 91, Sweden 2023) was 4 µg/mL (≈ 12 µM). It also gave an MIC (clinical N. gonorrhoeae isolate 92, Sweden 2023) of 8 µg/mL (≈ 24.1 µM), an MIC (clinical N. gonorrhoeae isolate 93, Sweden 2023) of 16 µg/mL (≈ 48.1 µM) and an MIC (clinical N. gonorrhoeae isolate 94, Sweden 2023) of 8 µg/mL (≈ 24.1 µM). For the same molecule, the MIC (clinical N. gonorrhoeae isolate 95, Sweden 2023) was 16 µg/mL (≈ 48.1 µM), the MIC (clinical N. gonorrhoeae isolate 96, Sweden 2023) was 8 µg/mL (≈ 24.1 µM) and the MIC (clinical N. gonorrhoeae isolate 97, Sweden 2023) was 16 µg/mL (≈ 48.1 µM). The MIC (clinical N. gonorrhoeae isolate 98, Sweden 2023) was 4 µg/mL (≈ 12 µM), the MIC (clinical N. gonorrhoeae isolate 99, Sweden 2023) was 4 µg/mL (≈ 12 µM) and the MIC (clinical N. gonorrhoeae isolate 100, Sweden 2023) was 16 µg/mL (≈ 48.1 µM). The “AMR phenotype (susceptibility category, EUCAST)” value (“AMR phenotype” below) (WHO F) was “S”, the “AMR phenotype” value (WHO H) was “S” and the “AMR phenotype” value (WHO K) was “S”. The “AMR phenotype” value (WHO L) was “S”, the “AMR phenotype” value (WHO M) was “S” and the “AMR phenotype” value (WHO O) was “R”. For the same molecule, the “AMR phenotype” value (WHO P) was “S”, the “AMR phenotype” value (WHO Q) was “S” and the “AMR phenotype” value (WHO R) was “S”. For the same molecule, the “AMR phenotype” value (WHO S2) was “S”, the “AMR phenotype” value (WHO U) was “S” and the “AMR phenotype” value (WHO V) was “S”. For the same molecule, the “AMR phenotype” value (WHO X) was “S”, the “AMR phenotype” value (WHO Y) was “S” and the “AMR phenotype” value (WHO Z) was “S”.
